A word on the Ki: it is a measure of affinity in units of concentration, obtained from inhibition or displacement. A high value points to weaker binding. The term IC50 denotes the concentration that gives 50% inhibition. The low end stands for greater potency, the high end for weaker potency.

Drawing on BindingDB's records for doi:10.3109/14756366.2010.510471 (Suven Life Sciences, 2011), this text covers Ki and IC50 for five compounds.

Assay [1] deals with 5-hydroxytryptamine receptor 6 (Homo sapiens, UniProt P50406). Put plainly: Radioligand Binding Assay. The conditions noted are these: pH 7.4; 37 °C. Here is the method:
Briefly, receptor source and radioligand used were human recombinant expressed in HEK-293 cells and [3H] LSD (60–80 Ci/mmol), respectively. The final ligand concentration was 1.5 nM and non-specific determinant was methiothepin mesylate (0.1 μM). The reference compound and positive control was methiothepin mesylate. Reactions were carried out in 50 mM TRISHCl (pH 7.4) containing 10 mM MgCl2, 0.5 mM EDTA for 60 min at 37 °C. The reaction was terminated by rapid vacuum filtration onto glass fibre filters.

The next assay has as its target Cytochrome P450 3A4 (Homo sapiens, UniProt P08684). Briefly: Isoform-Selective Assay. On the procedure:
(§1) The cytochrome P450 inhibitory potential was determined using isoform-selective assays and heterologously expressed human CYP2D6 and CYP3A4.

Another assay addresses Cytochrome P450 2D6 (Homo sapiens, UniProt P10635). Briefly: Isoform-Selective Assay. On the procedure: as §1

Sequence of 5-hydroxytryptamine receptor 6 (P50406 whole entry): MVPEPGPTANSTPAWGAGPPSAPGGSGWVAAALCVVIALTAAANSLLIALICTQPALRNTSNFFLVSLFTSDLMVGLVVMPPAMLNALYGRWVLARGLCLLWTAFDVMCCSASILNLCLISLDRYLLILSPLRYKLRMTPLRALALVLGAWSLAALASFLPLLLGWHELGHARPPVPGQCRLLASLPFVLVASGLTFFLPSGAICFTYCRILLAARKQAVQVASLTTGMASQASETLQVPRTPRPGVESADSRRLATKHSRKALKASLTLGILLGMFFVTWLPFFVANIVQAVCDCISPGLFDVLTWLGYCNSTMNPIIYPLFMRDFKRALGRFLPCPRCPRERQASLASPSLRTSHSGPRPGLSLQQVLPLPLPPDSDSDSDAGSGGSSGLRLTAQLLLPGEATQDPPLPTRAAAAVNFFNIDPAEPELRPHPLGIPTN
Sequence of Cytochrome P450 2D6 (P10635 whole entry, canonical isoform): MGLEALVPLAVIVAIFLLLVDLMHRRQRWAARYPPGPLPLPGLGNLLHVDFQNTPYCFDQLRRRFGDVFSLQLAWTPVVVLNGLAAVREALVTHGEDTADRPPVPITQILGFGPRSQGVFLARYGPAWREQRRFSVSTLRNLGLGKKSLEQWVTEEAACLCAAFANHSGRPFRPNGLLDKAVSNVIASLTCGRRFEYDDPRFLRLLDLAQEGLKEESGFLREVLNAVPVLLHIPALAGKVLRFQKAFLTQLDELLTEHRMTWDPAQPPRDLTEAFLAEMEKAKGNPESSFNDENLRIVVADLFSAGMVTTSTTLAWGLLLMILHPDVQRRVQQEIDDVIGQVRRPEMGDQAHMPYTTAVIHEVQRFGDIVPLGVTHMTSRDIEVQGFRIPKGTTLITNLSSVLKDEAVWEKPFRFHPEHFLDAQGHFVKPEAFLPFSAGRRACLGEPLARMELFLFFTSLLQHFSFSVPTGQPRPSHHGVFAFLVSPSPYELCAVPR
Sequence of Cytochrome P450 3A4 (P08684 whole entry, canonical isoform): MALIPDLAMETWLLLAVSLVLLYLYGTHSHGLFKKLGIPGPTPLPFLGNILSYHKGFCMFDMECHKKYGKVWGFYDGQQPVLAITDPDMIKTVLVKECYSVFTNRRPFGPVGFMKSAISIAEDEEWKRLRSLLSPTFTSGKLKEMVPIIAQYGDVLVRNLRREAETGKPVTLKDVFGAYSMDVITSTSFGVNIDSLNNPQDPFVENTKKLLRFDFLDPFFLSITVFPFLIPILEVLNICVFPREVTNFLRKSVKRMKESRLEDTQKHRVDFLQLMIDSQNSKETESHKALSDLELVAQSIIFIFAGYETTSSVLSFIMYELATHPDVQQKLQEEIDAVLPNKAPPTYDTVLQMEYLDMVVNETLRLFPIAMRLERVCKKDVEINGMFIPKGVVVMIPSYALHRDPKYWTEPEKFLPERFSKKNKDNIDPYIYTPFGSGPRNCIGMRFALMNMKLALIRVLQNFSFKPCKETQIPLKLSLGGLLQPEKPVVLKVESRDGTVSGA

With `CN(C)CCOc1c2n(c3cccc(F)c13)S(=O)(=O)c1ccccc1-2` [1-Fluoro-10-(2-N,N-Dimethylaminoethoxy)-5-Thia-4-b-azaindeno [2,1-a]indene-5,5-Dioxide (8o)], in assay [1], the Ki is > 0.5 µM.

In assay [1], `CN(C)CCOc1c2n(c3ccc(Cl)cc13)S(=O)(=O)c1ccccc1-2` [2-Chloro-10-(2-N,N-Dimethylaminoethoxy)-5-Thia-4-b-azaindeno[2,1-a]indene-5,5-Dioxide (8c)] displayed an inhibitory constant (Ki) of 0.464 µM.

In turn, `COc1ccc2c(c1)c(OCCN(C)C)c1n2S(=O)(=O)c2ccccc2-1` [2-Methoxy-10-(2-N,N-Dimethylaminoethoxy)-5-Thia-4b-azaindeno[2,1-a]indene-5,5-Dioxide (8d)] showed a Ki in assay [1] of 0.127 µM.

Turning to `CN(C)CCOc1c2n(c3cc(Cl)ccc13)S(=O)(=O)c1ccccc1-2` [3-Chloro-10-(2-N,N-Dimethylaminoethoxy)-5-Thia-4-b-azaindeno (8b)], the IC50 on Cytochrome P450 3A4 turned out to be 37.1 µM; against Cytochrome P450 2D6, 5.06 µM.

For the compound `CN(C)CCOc1c2n(c3ccccc13)S(=O)(=O)c1ccccc1-2` [10-(2-N,N-Dimethylaminoethoxy)-5-Thia-4-b-azaindeno[2,1-a]indene-5,5-Dioxide (8a)], the IC50 against Cytochrome P450 3A4 is > 45 µM; on Cytochrome P450 2D6 it was 7.65 µM.
